Experimental findings from patent publication US20220096515A1, “Methods and Formulations for Preventing Neurological or Psychiatric Disorders” (Huntington Medical Research Institutes, priority 2020, published 2022) are described below.

What all share (type): in vivo, mouse
For one test, the system named is wildtype CD1 mice. In words: Increasing dose regimen of NAD+ in wildtype CD1 mice, H&E of MGE. The following applies: i.p. The procedure: Histology, immunohistochemistry, and microscopic analysis: Paraffin immunohistochemistry (IHC) was performed on embryonic brains only while frozen section IHC was used on both embryonic and adult brains. Briefly, for paraffin IHC-E18 brains were fixed in zinc fixative (BD Biosciences PharMingen) for 24 h and processed for paraffin histology. Histological stainings with hematoxylin (Vector Laboratories) and eosin (Sigma) were performed on 8 μm coronal sections. Lectin histochemistry (with biotinylated isolectin B4, 1:50, Sigma) as well as IHC was performed on 20 μm sections. Primary antibodies used for IHC were as follows: anti-PHH3 (1:200, Millipore) and anti-NKX2.1, (1:50; Sigma) followed by secondary detection with AlexaFluor conjugates (Invitrogen). DAPI (Vector Laboratories) was used to label nuclei. For frozen section IHC, E18 and P90 brains were removed, fixed in 4% PFA for 24 hours, cryo-protected in sucrose gradient, embedded into OCT medium for frozen blocks; sectioned at 40 μm on a cryostat and immunostained with anti-GABA (1:80, Sigma) and anti -PROX1 (1:80, Millipore) antibodies. Twenty sections from each brain were used for IHC and histology experiments. Uniform penetration of antibodies or stains throughout the section was ascertained and quality of the staining in each digital section was examined. […]

The subject of test [1] is Gabrb3^ECKO endothelial cells. In words: qRT-PCR of periventricular endothelial cells after prenatal treatment. The procedure: Primary culture of endothelial cells and endothelial cell staining: Embryonic brains were dissected under a stereo-microscope, after the NAD^+ treatment paradigm and the telencephalon was removed. Pial membranes were peeled off. Telencephalon without pial membranes from the periventricular region was pooled. Purity of endothelial cell cultures was established with endothelial cell markers and determined to be one hundred percent. Isolation and culture of endothelial cells were performed according to published methodology. Periventricular endothelial cells were prepared from CD1 (wild type), saline-treated Gabrb3^fl/fl, saline-treated Gabrb3^ECKO, and NAD^+-treated Gabrb3^ECKO embryos. Endothelial cells were labeled with anti-biotinylated isolectinB4 (1:100, Sigma), anti-GABA (1:400, Sigma), anti-DAXX (1:100, Santa Cruz Biotechnology) and anti-P2X4 (1:100, Abclonal) followed by secondary detection with AlexaFluor conjugates (Invitrogen). DAPI (Invitrogen) was used to label nuclei. Images were taken on an FSX100 microscope (Olympus). 1 million cells were examined for each immunohistochemistry condition.
Quantitative real-time PCR: RT was performed by using iScript Reverse Transcription Supermix kit (Bio-Rad). PCR reactions were run on a CFX96 Touch Real Time PCR (Bio-Rad) with SsoAdvanced™ Universal SYBR® Green Supermix (Bio-Rad). Primers for qPCR (Daxx, P2x4, P2x7, P2y13, Tek, vwf, F2r, Sirt2, Nos1, Nrp1, Pax6, Gad1, Gad2, Grin2a, Trpm2, Trpc4 and Trpv6) were obtained from Thermo Fisher Scientific. The housekeeping gene Gapdh was used as a reference. The relative gene expression and subsequent fold changes among different samples were determined according to published methodology.
To gain mechanistic insights into NAD^+ action on endothelial cells, periventricular endothelial cells were isolated from saline-treated Gabrb3^fl/fl, saline-treated Gabrb3^ECKO, and NAD^+-treated Gabrb3^ECKO groups at the end of the treatment paradigm. […] GABA is synthesized from glutamate by Gad genes. […] The qRT-PCR gene expression levels followed a similar trend with that of the levels in the microarray data, reinforcing that the whole-tissue microarray was capable of highlighting some endothelial cells specific gene changes (FIGS. 10A-10I). […] Taken together, our results implicate NAD^+ as a critical modulator of angiogenesis in the embryonic forebrain.
In general terms: Real-time PCR tracks product formation cycle by cycle.

The next test concerns P2X4. Kind of test: P2X4 mRNA and protein expression in endothelial cells after prenatal treatment. The following applies: after six-day treatment paradigm. The procedure: Primary culture of endothelial cells and endothelial cell staining: Embryonic brains were dissected under a stereo-microscope, after the NAD^+ treatment paradigm and the telencephalon was removed. Pial membranes were peeled off. Telencephalon without pial membranes from the periventricular region was pooled. Purity of endothelial cell cultures was established with endothelial cell markers and determined to be one hundred percent. Isolation and culture of endothelial cells were performed according to published methodology. Periventricular endothelial cells were prepared from CD1 (wild type), saline-treated Gabrb3^fl/fl, saline-treated Gabrb3^ECKO, and NAD^+-treated Gabrb3^ECKO embryos. […]
Quantitative real-time PCR: RT was performed by using iScript Reverse Transcription Supermix kit (Bio-Rad). […] The relative gene expression and subsequent fold changes among different samples were determined according to published methodology.
An important aspect that influences endothelial cell proliferation is Ca^2+ influx, which is important for cell cycle progression in the neocortex. […] Therefore, P2X4 expression at both mRNA and protein levels in periventricular endothelial cells were evaluated, prepared after the six-day saline and NAD^+ treatment paradigm (FIGS. 11J-11O). […]

The mark [2] stands for this setting: periventricular endothelial cells after prenatal treatment.

Structures are written as SMILES.

As for `NC(=O)c1ccc[n+]([C@@H]2O[C@H](COP(=O)([O-])OP(=O)(O)OC[C@H]3O[C@@H](n4cnc5c(N)ncnc54)[C@H](O)[C@@H]3O)[C@@H](O)[C@H]2O)c1` [NAD^+], the “cell cluster in MGE (H&E)” value with wildtype CD1 mice (10 mg, 20 mg and 40 mg per mouse) was “a similar cell cluster in the MGE”. In the test with wildtype CD1 mice, this compound yielded a lowest effective dose of 10 mg per mouse. In addition, the “P2X7 and P2Y13 mRNA expression” value in test [1] (after NAD^+ treatment) was “rescue of P2X7 and P2Y13 mRNA expression”. Besides, in test [1] (setting [2]), the “Gad1 and Gad2 expression by qRT-PCR” value is reported as “concurrently rescued”; the “calcium signaling genes (Grin2a, Trpm2, Trpc4, Trpv6) by qRT-PCR” value is on record as “rescue of several calcium signaling genes”; the “expression of angiogenesis regulators (Tek, vWF, F2r, Sirt2, Nos1, Pax6) by qRT-PCR” value was “restored the expression of several critical regulators of angiogenesis”. In addition, in the test on P2X4, the “P2X4 mRNA and protein expression” value is listed as “its expression was rescued”.
